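1) Cells in 96-well plates. 2) Compound, 48 h, 5 concentrations. 3) Linear interpolation between surrounding doses. 4) Unreached endpoint = highest concentration. TGI: total growth inhibition.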
Tests used:
Assay in all cases: NCI tumour cell line growth inhibition, 48 h
[1] = test system: 786-0 renal
[2] = test system: LXFL 529 NSCLC
[3] = test system: RXF-631 renal
[4] = test system: P388 leukemia
[5] = test system: P388/ADR leukemia
[6] = test system: SN12K1 renal

SMILES | TGI [1] [µM] | TGI [2] [µM] | other results
Cc1c[n+]2c3ccccc3c3ccccc3c2s1 | > 100 | 21.6 | 
Cc1cccc(Br)[n+]1[O-] | > 100 |  | 
NCCSc1cc(O)c2c(c1N)C(=O)c1ccccc1C2=O | > 100 | > 100 | TGI [3]: 97.1 µM
COc1cc(C2c3cc4c(cc3[C@@H](Nc3cccc(CO)c3)C3COC(=O)[C@H]23)OCO4)cc(OC)c1O (stereo partly drawn) |  |  | TGI [4]: 0.369 µM; TGI [5]: 1.86 µM; TGI [6]: 5.53 µM
C=CCN1/C(=C(\C#N)c2nc3ccccc3[nH]2)Sc2c1nc[nH]c2=O |  | > 100 | 
CSCC[C@@H]1C(=O)N(C)[C@H](C(C)(C)C)N1C(=O)c1ccccc1 |  |  | TGI [4]: > 100 µM; TGI [6]: > 100 µM
CC(=O)c1[nH]c(NC(C)C)c(C(=S)Nc2ccccc2)c1N | 61.8 |  | 
COc1cc2c3cc1Oc1c(O)c(OC)cc4c1C(Cc1ccc(O)c(c1)Oc1ccc(cc1)CC3N(C)CC2)N(C)CC4 (stereo not drawn) | 25.9 | 17.1 | 
Cc1[nH]c(=O)[nH]c(=O)c1/C=C/C(=O)O (tested in a mixture with another compound) |  |  | TGI [4]: > 625 µM; TGI [5]: > 625 µM; TGI [6]: > 625 µM
N#CC(N=Nc1ccccc1C(=O)O)C(N)=O (stereo not drawn) | > 100 |  | 
O=C1C=CC2OC(c3ccccc3)C(O)C2O1 (stereo not drawn) |  |  | TGI [4]: 6.53 µM; TGI [5]: 7.63 µM; TGI [6]: 14.9 µM
COc1cccc(/C=N/NC(=O)CSCC(=O)N/N=C/c2cccc(OC)c2OC)c1OC | > 100 |  | 
CCC(C)C(N)C(=O)NC(CC(N)=O)C(=O)NC(CC(C)C)C(=O)NC(CCCCN)C(=O)NC(C)C(=O)NC(CC(C)C)C(=O)NC(C)C(=O)NC(C)C(=O)NC(CC(C)C)C(=O)NC(C)C(=O)NC(CCCCN)C(=O)NC(CCCCN)C(=O)NC(C(=O)NC(CC(C)C)C(N)=O)C(C)CC (stereo not drawn) | 13.7 | 28.7 | TGI [3]: 19.5 µM
CC1(C)[C@@H]2CC[C@]1(C)[C@H](OC(=O)/C=C/c1ccccc1)C2 | 32.3 |  | 
O=c1c2ccccc2[nH]n1Cc1ccccc1 | > 100 |  | 
